Tests used:
TREK-1 [1] = molecular target: T1, TREK-1 (Homo sapiens, UniProt O95069); test: TREK-1 thallium flux assay (hTREK-1/CHO); format: cell-based; set-up: host or cells: CHO; conditions: for Emax: % activation relative to 10 µM BL-1249
T1 sequence (O95069 1-426): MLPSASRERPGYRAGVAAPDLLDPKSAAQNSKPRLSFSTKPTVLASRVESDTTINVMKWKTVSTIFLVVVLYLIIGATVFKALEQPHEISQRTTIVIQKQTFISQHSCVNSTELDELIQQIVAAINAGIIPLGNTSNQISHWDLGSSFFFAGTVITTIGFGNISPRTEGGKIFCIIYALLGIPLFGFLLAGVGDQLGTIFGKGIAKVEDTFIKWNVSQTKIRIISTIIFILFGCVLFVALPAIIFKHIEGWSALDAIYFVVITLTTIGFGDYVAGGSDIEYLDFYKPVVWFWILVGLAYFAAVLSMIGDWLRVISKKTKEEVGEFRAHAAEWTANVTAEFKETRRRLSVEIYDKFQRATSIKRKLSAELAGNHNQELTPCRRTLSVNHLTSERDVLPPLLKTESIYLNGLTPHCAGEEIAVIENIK
Description: (§1) Procedures for Biological Experiments
TREK-1 and TREK-2 thallium flux assay protocol
CHO cells stably expressing human TREK-1 (hTREK-1/CHO) were constructed at Evotec. […]
(§2) hTREK-1/CHO or hTREK-2/HEK were plated in 384-well plates at a density of 1.0x10^4 cells/well or 2.0x10^4 cells/well, respectively, and cultured overnight. After the wash by HBSS + 20 mM HEPES buffer, cells were loaded with Thallos dye for 1 hour at room temperature. After the wash […]
(§3) dissolved with HBSS + 20mM HEPES buffer were added to each well. After 10 minutes incubation at room temperature, thallium stimulus buffer were added to each well and the fluorescent intensity are measured by Panoptic. The final thallium concentration was 0.36 mM in […]
(§4) TREK-1 or 0.24 mM in TREK-2, respectively. […]

TREK-2 [2] = molecular target: T2, TREK-2 (Homo sapiens, UniProt P57789); test: TREK-2 thallium flux assay (hTREK-2/HEK); format: cell-based; set-up: expressed in transfected cells; host or cells: HEK293; conditions: for Emax: % activation relative to 10 µM BL-1249
T2 sequence (P57789 1-538): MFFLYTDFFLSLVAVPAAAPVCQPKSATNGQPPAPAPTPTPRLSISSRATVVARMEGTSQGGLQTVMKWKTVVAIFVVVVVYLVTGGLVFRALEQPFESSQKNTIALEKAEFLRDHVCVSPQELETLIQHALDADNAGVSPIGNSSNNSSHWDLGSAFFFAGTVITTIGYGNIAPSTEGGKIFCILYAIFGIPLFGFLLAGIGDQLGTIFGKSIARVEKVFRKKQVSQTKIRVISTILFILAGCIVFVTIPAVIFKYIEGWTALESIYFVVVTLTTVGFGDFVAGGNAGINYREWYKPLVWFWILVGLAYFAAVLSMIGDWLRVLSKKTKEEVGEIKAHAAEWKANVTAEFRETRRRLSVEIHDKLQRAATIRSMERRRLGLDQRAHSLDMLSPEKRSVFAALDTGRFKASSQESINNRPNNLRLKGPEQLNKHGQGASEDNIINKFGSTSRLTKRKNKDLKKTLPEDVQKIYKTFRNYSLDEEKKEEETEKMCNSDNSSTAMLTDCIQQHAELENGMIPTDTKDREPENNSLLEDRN
Description: as §1
TREK-1 and TREK-2 thallium flux assay protocol […]
as §2, with “HEK293 cells stably expressing human TREK-2 (hTREK-2/HEK) were constructed at Ono. hTREK-1/CHO” for “hTREK-1/CHO”
as §3, §4

[3] = set-up: method as in PMID 31072652; conditions: previously reported; cited from earlier work
[4] = set-up: method as in PMID 31072652; conditions: previously reported; cited from earlier work; remark: listed apart in the source
TREK-2 [5] = molecular target: T2, TREK-2; set-up: method as in PMID 31072652; conditions: previously reported; cited from earlier work
TREK-1 [6] = molecular target: T1, TREK-1; set-up: method as in PMID 31072652; conditions: previously reported; cited from earlier work
TASK-1 = test: human 86Rb flux K2P selectivity panel; format: cell-based; conditions: 86Rb flux K2P panel
TREK-2 [7] = molecular target: T2, TREK-2; test: human 86Rb flux K2P selectivity panel; format: cell-based; conditions: data is not shown
mouse TREK-2 = molecular target: T3, mouse TREK-2 (Mus musculus, UniProt Q8BUW1); test: mouse TREK-2 MPC assay; format: cell-based; conditions: mouse, manual patch clamp
T3 sequence (Q8BUW1 1-535): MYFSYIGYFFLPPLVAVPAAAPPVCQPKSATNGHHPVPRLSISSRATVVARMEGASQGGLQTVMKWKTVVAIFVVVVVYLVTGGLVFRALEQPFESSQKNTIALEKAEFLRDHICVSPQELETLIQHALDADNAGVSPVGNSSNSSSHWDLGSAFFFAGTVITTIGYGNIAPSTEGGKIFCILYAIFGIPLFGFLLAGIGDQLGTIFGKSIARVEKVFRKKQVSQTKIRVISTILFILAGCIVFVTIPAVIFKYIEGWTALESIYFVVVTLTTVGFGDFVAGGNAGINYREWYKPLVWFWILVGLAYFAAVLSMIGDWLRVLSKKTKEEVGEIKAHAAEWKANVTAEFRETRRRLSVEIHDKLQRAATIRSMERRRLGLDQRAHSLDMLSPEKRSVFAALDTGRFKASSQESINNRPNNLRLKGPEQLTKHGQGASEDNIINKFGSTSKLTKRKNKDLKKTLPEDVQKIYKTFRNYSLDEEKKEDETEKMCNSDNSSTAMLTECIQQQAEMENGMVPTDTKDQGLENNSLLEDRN

TASK-3 = test: human 86Rb flux K2P selectivity panel; format: cell-based; conditions: 86Rb flux K2P panel
TASK-2 = test: human 86Rb flux K2P selectivity panel; format: cell-based; conditions: 86Rb flux K2P panel
TRAAK = test: human 86Rb flux K2P selectivity panel; format: cell-based; conditions: 86Rb flux K2P panel
TREK-1 [8] = molecular target: T1, TREK-1; test: human 86Rb flux K2P selectivity panel; format: cell-based; conditions: data is not shown
TWIK-2 = test: human 86Rb flux K2P selectivity panel; format: cell-based; conditions: 86Rb flux K2P panel
mouse TREK-1 = molecular target: T4, mouse TREK-1 (Mus musculus, UniProt P97438); test: mouse TREK-1 MPC assay; format: cell-based; conditions: manual patch clamp
T4 sequence (P97438 1-426): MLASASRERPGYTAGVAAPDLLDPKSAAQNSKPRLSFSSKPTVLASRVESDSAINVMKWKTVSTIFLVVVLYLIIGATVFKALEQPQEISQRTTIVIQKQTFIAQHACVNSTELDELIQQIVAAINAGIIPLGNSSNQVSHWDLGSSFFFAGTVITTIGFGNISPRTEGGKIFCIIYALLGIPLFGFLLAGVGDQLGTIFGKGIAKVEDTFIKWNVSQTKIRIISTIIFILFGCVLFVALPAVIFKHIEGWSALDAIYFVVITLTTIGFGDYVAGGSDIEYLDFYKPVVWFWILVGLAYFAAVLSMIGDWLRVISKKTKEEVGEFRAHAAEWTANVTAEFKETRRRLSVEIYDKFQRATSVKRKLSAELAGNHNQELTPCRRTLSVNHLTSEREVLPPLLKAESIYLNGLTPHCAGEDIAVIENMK

TRESK = molecular target: T5, TRESK (Homo sapiens, UniProt Q7Z418); test: human 86Rb flux K2P selectivity panel; format: cell-based; conditions: 86Rb flux K2P panel
T5 sequence (Q7Z418 1-384): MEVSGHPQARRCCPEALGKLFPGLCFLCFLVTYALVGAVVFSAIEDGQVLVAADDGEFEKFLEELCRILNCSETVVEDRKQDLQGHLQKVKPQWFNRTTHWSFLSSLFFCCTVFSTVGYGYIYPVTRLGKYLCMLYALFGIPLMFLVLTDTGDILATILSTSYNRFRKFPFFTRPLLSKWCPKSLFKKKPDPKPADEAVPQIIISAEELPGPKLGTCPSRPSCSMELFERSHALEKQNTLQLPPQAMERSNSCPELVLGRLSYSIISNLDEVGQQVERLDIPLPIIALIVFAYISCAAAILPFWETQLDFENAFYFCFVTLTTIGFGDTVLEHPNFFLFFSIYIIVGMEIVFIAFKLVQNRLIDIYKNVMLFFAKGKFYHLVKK

[9] = control compound, table footnote

Row | EC50 (TREK-1 [1]) [nM] | Emax (TREK-1 [1]) [%] | EC50 (TREK-2 [2]) [nM] | Emax (TREK-2 [2]) [%] | Compound | rat plasma fu [3] | rat CLhep (predicted hepatic clearance) [4] [mL/min/kg] | TREK-2 Emax (TREK-2 [5]) [%] | TREK-1 Emax (TREK-1 [6]) [%] | also measured
1 | 1500 | 42 | 410 | 158 | COc1cc(OC(F)(F)F)ccc1CNC(=O)c1ccc(-n2cncn2)nc1 [Compound 14b] | – | – | – | – | Fold TREK-2 (TREK-2 [2]; TREK-2 preference over TREK-1, thallium flux): 3.7 fold
2 | – | – | – | – | c1ccc(-c2nnn[nH]2)c(Nc2cccc3c2CCCC3)c1 [BL-1249, (5,6,7,8-tetrahydro-naphthalen-1-yl)-[2-(1H-tetrazol-5-yl)-phenyl]-amine, reference compound] | < 0.001 | > 50.9 | 133 ± 23 | 109 ± 14 | IC50 (TREK-1 [1]; [9]): 5200 nM; IC50 (TREK-2 [2]; [9]): 7300 nM
3 | ~1100 | 20 | 360 | 109 | Cc1cc(OC(F)(F)F)ccc1CNC(=O)c1ccc(-n2cncn2)nc1 [Compound 14c] | – | – | – | – | selectivity against TASK-1 over TREK-2 (TASK-1): > 43 fold; activity at TREK-2 in 86Rb flux panel (TREK-2 [7]): submicromolar TREK-2 activator; EC50 (mouse TREK-2): 310 nM; Emax (mouse TREK-2): 72%; selectivity against TASK-3 over TREK-2 (TASK-3): > 43 fold; selectivity against TASK-2 over TREK-2 (TASK-2): > 43 fold; selectivity against TRAAK over TREK-2 (TRAAK): > 43 fold; activity at TREK-1 in 86Rb flux panel (TREK-1 [8]): partial TREK-1 activator; selectivity against TWIK-2 over TREK-2 (TWIK-2): > 43 fold; EC50 (mouse TREK-1): 2800 nM; Emax (mouse TREK-1): 31%; selectivity against TRESK over TREK-2 (TRESK): > 43 fold
4 | – | – | – | – | O=C(Nc1cc(F)c(Br)cc1C(=O)O)c1ccc(SC(F)(F)F)cc1 [Compound 8] | 0.041 | 35.5 | 84 | 101 | –

— PMC11887051, “Discovery of ONO-2920632 (VU6011887): A Highly Selective and CNS Penetrant TREK-2 (TWIK-Related K+ Channel 2) Preferring Activator In Vivo Tool Compound” (ACS Chemical Neuroscience, 2025)
